Test results: patent US8871728B2, “Non-peptide macrocyclic histone deacetylese (HDAC) inhibitors and methods of making and using thereof” (Georgia Tech Research Corporation, priority 2007, dated 2014)
In brackets after ≈: the same amount, converted by molar mass. Several values for one entry are separate records, joined by “and”; a condition that tells them apart may be missing. Equal values may be shown once. Read-outs that look alike come from different tables or passages of the source.

Legend:
[1] = test system: DU 145 (androgen independent prostate cancer); experiment: Anti-cancer activity screen; type: cell-based
[2] = target: HDAC8 (Homo sapiens (Human), UniProt Q9BY41); experiment: SAMDI mass spectrometry HDAC inhibition assay; type: biochemical
Sequence of HDAC8 (Q9BY41 whole entry): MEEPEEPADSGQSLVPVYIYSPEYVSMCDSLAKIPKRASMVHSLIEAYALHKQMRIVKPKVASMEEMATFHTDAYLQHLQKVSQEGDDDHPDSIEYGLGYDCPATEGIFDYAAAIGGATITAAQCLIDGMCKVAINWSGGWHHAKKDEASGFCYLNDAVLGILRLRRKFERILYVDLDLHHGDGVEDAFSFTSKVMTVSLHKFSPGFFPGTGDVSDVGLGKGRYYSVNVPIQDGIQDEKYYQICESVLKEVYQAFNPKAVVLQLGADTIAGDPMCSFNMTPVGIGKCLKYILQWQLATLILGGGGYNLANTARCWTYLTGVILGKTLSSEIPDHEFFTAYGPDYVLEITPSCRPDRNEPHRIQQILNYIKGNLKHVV
Procedure: (§1) There is precedence that fluorescently labeled substrates can perturb enzyme activity and the effect of inhibitors. […] Additionally, 3-hydroxypyridine-2-ones are highly colored solids and might lead to false positive signals. Mindful of these facts, a label-free SAMDI (self-assembled monolayers for MALDI) mass spectrometry assay was also used to assess HDAC inhibition.
(§2) The SAMDI technique, wherein self-assembled monolayers (SAM) of alkanethiolates on gold are analyzed by matrix assisted laser desorption/ionization (MALDI) mass spectrometry, has been widely used to characterize many biochemical activities, including the deacetylase enzyme family.

[3] = target: HDAC1 (Homo sapiens (Human), UniProt Q13547); experiment: SAMDI mass spectrometry HDAC inhibition assay; type: biochemical; conditions: for HDAC1 inhibition, symbol: SAMDI; for HDAC1 % inhibition: at 10 μM, given if the IC50 was above 10 μM
Sequence of HDAC1 (Q13547 whole entry): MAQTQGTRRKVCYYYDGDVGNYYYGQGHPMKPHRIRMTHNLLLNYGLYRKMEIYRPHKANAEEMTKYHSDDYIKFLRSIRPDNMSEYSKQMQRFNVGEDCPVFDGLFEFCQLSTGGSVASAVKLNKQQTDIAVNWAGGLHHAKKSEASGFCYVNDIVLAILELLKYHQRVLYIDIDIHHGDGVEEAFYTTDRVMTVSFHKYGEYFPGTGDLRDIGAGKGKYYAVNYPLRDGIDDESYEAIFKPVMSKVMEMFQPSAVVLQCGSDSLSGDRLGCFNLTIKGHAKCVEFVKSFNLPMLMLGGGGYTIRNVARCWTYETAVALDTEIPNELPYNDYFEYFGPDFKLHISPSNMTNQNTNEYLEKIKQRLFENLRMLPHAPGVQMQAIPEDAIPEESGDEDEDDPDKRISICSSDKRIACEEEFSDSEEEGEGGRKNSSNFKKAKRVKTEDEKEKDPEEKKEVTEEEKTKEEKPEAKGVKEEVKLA
Procedure: as §1, §2

[4] = test system: LNCaP (androgen dependent prostate cancer); experiment: Anti-cancer activity screen; type: cell-based
[5] = target: HDAC6 (Homo sapiens (Human), UniProt Q9UBN7); experiment: SAMDI mass spectrometry HDAC inhibition assay; type: biochemical; conditions: for inhibition at 10 µM: read-out: HDAC6 % inhibition
Sequence of HDAC6 (Q9UBN7 whole entry): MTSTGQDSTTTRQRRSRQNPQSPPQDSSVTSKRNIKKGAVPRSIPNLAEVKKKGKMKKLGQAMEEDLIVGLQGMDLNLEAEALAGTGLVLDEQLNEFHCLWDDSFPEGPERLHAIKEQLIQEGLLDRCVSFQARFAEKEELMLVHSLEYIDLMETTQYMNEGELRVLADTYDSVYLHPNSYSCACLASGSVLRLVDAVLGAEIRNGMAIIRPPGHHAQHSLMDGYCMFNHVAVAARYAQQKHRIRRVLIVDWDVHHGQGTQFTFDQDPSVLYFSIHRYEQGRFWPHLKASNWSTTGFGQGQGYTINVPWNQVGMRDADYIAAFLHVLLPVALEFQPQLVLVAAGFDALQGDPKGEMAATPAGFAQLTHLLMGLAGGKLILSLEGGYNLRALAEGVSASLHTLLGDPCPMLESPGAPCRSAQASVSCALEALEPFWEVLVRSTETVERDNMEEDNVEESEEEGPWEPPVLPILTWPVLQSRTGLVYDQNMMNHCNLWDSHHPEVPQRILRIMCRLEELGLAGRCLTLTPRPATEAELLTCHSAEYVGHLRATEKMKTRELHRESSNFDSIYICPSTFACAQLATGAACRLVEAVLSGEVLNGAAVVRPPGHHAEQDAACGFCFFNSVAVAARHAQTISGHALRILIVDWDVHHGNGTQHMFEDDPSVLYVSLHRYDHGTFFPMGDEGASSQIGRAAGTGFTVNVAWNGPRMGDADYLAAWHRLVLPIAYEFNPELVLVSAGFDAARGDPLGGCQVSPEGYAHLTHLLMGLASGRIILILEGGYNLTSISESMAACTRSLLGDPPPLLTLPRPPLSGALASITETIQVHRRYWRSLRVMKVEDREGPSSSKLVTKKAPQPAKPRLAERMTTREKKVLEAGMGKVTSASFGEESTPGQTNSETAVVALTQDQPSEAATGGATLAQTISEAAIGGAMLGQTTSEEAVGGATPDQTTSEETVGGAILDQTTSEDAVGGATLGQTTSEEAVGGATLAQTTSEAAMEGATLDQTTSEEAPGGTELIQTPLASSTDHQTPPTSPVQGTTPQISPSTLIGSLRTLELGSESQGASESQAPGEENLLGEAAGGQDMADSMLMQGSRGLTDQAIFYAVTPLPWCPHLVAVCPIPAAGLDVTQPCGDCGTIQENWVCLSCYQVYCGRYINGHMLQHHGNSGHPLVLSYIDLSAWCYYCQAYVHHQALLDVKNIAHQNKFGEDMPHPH
Procedure: as §1
The SAMDI technique, wherein self-assembled monolayers (SAM) of alkanethiolates on gold are analyzed by matrix assisted laser desorption/ionization (MALDI) mass spectrometry, has been widely used to characterize many biochemical activities, including the deacetylase enzyme family. The SAMDI assay was used to measure the inhibition constant (K1) of fragments against HDAC1, HDAC6 and HDAC8 using a previously identified preferred HDAC substrate.

[6] = test system: Jurkat (T cell leukemia overexpressing HDAC8); experiment: Anti-cancer activity screen; type: cell-based
[7] = test system: Plasmodium falciparum (W2 clone), chloroquine-resistant; experiment: Plasmodium growth inhibition, parasite lactate dehydrogenase assay (Malstat); type: cell-based; conditions: for IC50: Plasmodium falciparum; for Plasmodium falciparum (W2 clone) IC50: chloroquine-resistant
Procedure: (§3) The compounds described herein were also evaluated for parasitic activity against Plasmodium falciparum and Leismania donovani. P. falciparum and L. donovani are the causative parasites of malaria and leishmaniasis, two human diseases which constitute a serious threat to public health in tropical and sub-tropical countries. Antimalarial activity was evaluated in vitro using chloroquine-sensitive (D6, Sierra Leone) and chloroquine-resistant (W2, Indochina) strains of P. falciparum. Antileishmanial activity was evaluated in vitro against the promastigote stage of L. donovani.
(§4) Plasmodium growth inhibition was determined by a parasite lactate dehydrogenase assay using Malstat reagent. Inhibition of viability of the promastigote stage of L. donovani was determined using standard Alamar blue assay, modified to a fluorometric assay.
(§5) Macrocyclic histone deacetylase inhibitors were evaluated for parasitic activity against Plasmodium falciparum and Leismania donovani. P. falciparum and L. donovani are the causative parasites of malaria and leishmaniasis, two human diseases which constitute a serious threat to public health in tropical and sub-tropical countries. Antimalarial activity was evaluated in vitro using chloroquine-sensitive (D6, Sierra Leone) and chloroquine-resistant (W2, Indochina) strains of P. falciparum. Antileishmanial activity was evaluated in vitro against the promastigote stage of L. donovani.
as §4

[8] = test system: Plasmodium falciparum (D6 clone), chloroquine-sensitive; experiment: as above; type: cell-based; conditions: for IC50: Plasmodium falciparum; for Plasmodium falciparum (D6 clone) IC50: chloroquine-sensitive; for S.I. D6: selective toxicity index, Vero versus D6
Procedure: as §3, §4, §5, §4

[9] = test system: promastigote stage of L. donovani; experiment: Antileishmanial Alamar blue fluorometric assay; type: cell-based
Procedure: as §3, §4, §5, §4

[10] = test system: HeLa nuclear extract HDAC1/2; experiment: Fluor de Lys HDAC inhibition, HeLa nuclear extract; type: biochemical, human; conditions: Table 8; read-out: HDAC Inhibition IC50
Excerpt: Fluor de Lys™ is a fluorescence based HDAC activity assay comprising a combination of fluorogenic Histone deAcetylase Lysyl substrate and a developer. The kit is a highly sensitive and convenient alternative to radiolabeled, acetylated histones or peptide/HPLC methods for the assay of histone deacetylases. This assay is based on the ability of HeLa nuclear extract, which is enriched in HDAC activity, to mediate the deacetylation of the acetylated lysine side chain of the Fluor de Lys substrate. The assay procedure requires two steps. First, incubation of the HeLa nuclear extract with the Fluor de Lys substrate results in substrate deacetylation and thus sensitizes it to the second step. In the second step, treatment of the deacetylated substrate with the Fluor de Lys developer produces a fluorophore. The substrate-developer reaction, under normal circumstances goes to completion in less than 1 min at 25° C. The kit used was the Fluorimetric Assay/Drug Discovery Kit—AK-500 Manual Fluorescent Assay System available from BIOMOL® International, Plymouth Meeting, Pa.
Each IC50 value was obtained by averaging three independent experiments.

[11] = Table 14, read-out: HDAC 8 (nm)
[12] = Table 14, read-out: HDAC 6 (nm)
[13] = Homo sapiens, DU-145, calculated IC50 above 20 μM (highest concentration tested) also reported as >20
[14] = W2, chloroquine-resistant, read-out: Plasmodium falciparum (W2 clone) IC50
[15] = D6, chloroquine-sensitive, read-out: Plasmodium falciparum (D6 clone) IC50
[16] = calculated IC50 above 20 μM (highest concentration tested) also reported as >20
[17] = Homo sapiens, Jurkat, read-out: Jurkat (μm)

## Oc1cccn(CCCCCCCn2cc(-c3ccccc3)nn2)c1=S [Compound 162f, 1-Phenyltriazolylheptyl-3-hydroxypyridine-2-thione]
[1]
  IC50: 17.7 ± 3.28 µM
[2]; SAMDI, read-out: HDAC8 IC50
  IC50: 0.232 ± 0.019 µM
[2]; [11]
  IC50: 1.38 ± 0.205 µM
[3]
  HDAC1 inhibition, symbol: NI (No significant Inhibition (below 20% Inhibition))
  HDAC1 % inhibition: 35%
[4]
  IC50: 11 ± 1.92 µM
[5]; SAMDI, read-out: HDAC6 IC50
  IC50: 0.955 ± 0.15 µM
[5]; [12]
  IC50: 0.955 ± 0.15 µM
[6]; read-out: Jurkat (μm)
  IC50: 9.04 ± 1.31 µM

## Cc1ccccc1-c1ccc(Cn2cccc(O)c2=S)cc1 [Compound 149f, 1-(2-Methyl-(1,1′-biphenylmethyl))-3-hydroxyoxypyridine-2-thione]
[1]; [13]
  IC50: 13.6 ± 2.91 µM
[3]
  HDAC1 inhibition, symbol: NI (No significant Inhibition (below 20% Inhibition))
[4]; Homo sapiens, LNCaP
  IC50: 7.75 ± 0.73 µM
[5]; [12]
  IC50: 0.306 ± 0.069 µM

## C[C@@H]1CC[C@H]2[C@@H](C)C(=O)O[C@@H]3O[C@@]4(C)CC[C@@H]1[C@]32OO4 [Artemisinin, artemisinin, reference compound]
[7]; [14]
  IC50: 0.006 µg/mL (≈ 0.0213 µM)
[7]
  Plasmodium falciparum (W2 clone) IC50: 0.009 µg/mL
[8]; [15]
  IC50: 0.004 µg/mL (≈ 0.0142 µM)
[8]
  Plasmodium falciparum (D6 clone) IC50: 0.006 µg/mL

## N=C(N)c1ccc(OCCCCCOc2ccc(C(=N)N)cc2)cc1 [Pentamidine, pentamidine, reference compound]
[9]; Leishmania donovani, promastigotes, read-out: Antileshmanial activity IC50
  IC50: 0.9 µg/mL (≈ 2.64 µM)
[9]; promastigotes
  Antileshmanial activity IC50: 1.4 µg/mL

## C=C1C[C@H](CC)C(C)(C)[C@H](C)[C@@H](C)N(C)C[C@H](C)CC(C)(C)[C@H](C[C@@H]2C[C@H](C)C[C@H](N(C)Cc3ccc(C(C)C)cc3)[C@H]2C)[C@@H](C)[C@H](C)[C@H]1C [Compd 4]
[7]; [14]
  IC50: 1.7 µg/mL (≈ 2.46 µM)
[7]; selective toxicity index, Vero versus W2, value in brackets
  S.I. (W2): > 2.8
[8]; [15]
  IC50: 1.3 µg/mL (≈ 1.88 µM)
[8]
  S.I. D6: > 3.7
[10]
  IC50: 0.0888 µM

## Oc1cccn(Cc2ccc(Cn3cc(-c4ccccc4)nn3)cc2)c1=S [Compound 168]
[1]; [13]
  IC50: 16.1 ± 2.24 µM
[2]; [11]
  IC50: 5.47 ± 1.6 µM
[3]
  HDAC1 inhibition, symbol: NI (No significant Inhibition (below 20% Inhibition))
[4]; Homo sapiens, LNCaP
  IC50: 7.8 ± 0.55 µM
[5]; [12]
  IC50: 0.534 ± 0.185 µM
[6]; Homo sapiens, Jurkat; read-out: Jurkat (μm)
  IC50: 6.55 ± 0.91 µM

## N#Cc1ccccc1-c1ccc(Cn2cccc(O)c2=S)cc1 [Compound 149c, 1-(2-Cyano-(1,1′-biphenylmethyl))-3-hydroxyoxypyridine-2-thione]
[1]; [13]
  IC50: 30 ± 5.85 µM
[1]; [16]
  IC50: > 20 µM
[2]; SAMDI, read-out: HDAC8 IC50
  IC50: 1.91 ± 0.771 µM
[2]; SAMDI, read-out: HDAC8 activity (IC50)
  IC50: ~2 µM
[2]; [11]
  IC50: 1.91 ± 0.771 µM
[3]
  HDAC1 inhibition, symbol: NI (No significant Inhibition (below 20% Inhibition))
[4]; Homo sapiens, LNCaP
  IC50: 14.7 ± 0.84 µM
[5]; SAMDI, read-out: HDAC6 IC50
  IC50: 0.372 ± 0.035 µM
[6]; [17]
  IC50: 8.95 ± 0.69 µM

## O=C(CCCCCCC(=O)Nc1ccccc1)NO [SAHA, suberoylanilide hydroxamic acid, reference compound]
[8]
  S.I. D6: 4.8
[9]; Leishmania donovani, read-out: Antileshmanial activity IC90 (μg/ml)
  IC90: 50 µg/mL (≈ 189 µM)
[5]
  inhibition at 10 µM: 95%

## CN(C)c1ccc(-c2ccc(Cn3cccc(O)c3=S)cc2)cc1 [Compound 149g, 1-(4-Dimethylamino-(1,1′-biphenylmethyl))-3-hydroxyoxypyridine-2-thione]
[1]; [13]
  IC50: > 20 µM
[1]; [16]
  IC50: 22.8 ± 3.8 µM
[2]; [11]
  IC50: 2.86 ± 0.944 µM
[3]
  HDAC1 inhibition, symbol: NI (No significant Inhibition (below 20% Inhibition))
[4]; Homo sapiens, LNCaP
  IC50: 16.2 ± 1.11 µM
[5]; SAMDI
  HDAC6 inhibition, symbol: NI (No significant Inhibition (below 20% Inhibition))
[6]; [17]
  IC50: 10.6 ± 0.97 µM

## N#Cc1cccc(-c2cn(CCCCCn3cccc(O)c3=S)nn2)c1 [Compound 167e, 1-(3-Benzonitrile)triazolylpentyl-3-hydroxypyridine-2-thione]
[2]; SAMDI, read-out: HDAC8 IC50
  IC50: 2.83 µM
[2]; [11]
  IC50: 2.4 ± 0.263 µM
[4]
  IC50: 3.49 ± 0.34 µM
[4]; Homo sapiens, LNCaP
  IC50: 4.95 ± 0.43 µM
[5]; SAMDI, read-out: HDAC6 IC50
  IC50: 0.356 µM
[5]; [12]
  IC50: 0.637 µM and 0.356 µM
[6]; [17]
  IC50: 5.18 ± 1.18 µM
[6]; read-out: Jurkat (μm)
  IC50: 3.44 ± 0.57 µM

## C[C@@H]1[C@H](O)[C@@H](C)/C=C/C=C/C=C/C=C/C=C/C=C/C=C/[C@H](O[C@@H]2O[C@H](C)[C@@H](O)[C@H](N)[C@@H]2O)C[C@@H]2O[C@](O)(C[C@@H](O)C[C@@H](O)[C@H](O)CC[C@@H](O)C[C@@H](O)CC(=O)O[C@H]1C)C[C@H](O)[C@H]2C(=O)O [Amphotericine B, Amphotericin B, reference compound]
[9]; promastigotes
  Antileshmanial activity IC90: 0.32 µg/mL and 0.3 µg/mL

## CCN(CC)CCCC(C)Nc1ccnc2cc(Cl)ccc12 (centres unmarked) [Chloroquine, chloroquine, reference compound]
[7]; W2, read-out: Plasmodium falciparum (W2 clone) IC50 (μg/ml), chloroquine-resistant
  IC50: 0.125 µg/mL (≈ 0.391 µM)
[7]
  Plasmodium falciparum (W2 clone) IC50: 0.14 µg/mL
[8]; D6, read-out: Plasmodium falciparum (D6 clone) IC50 (μg/ml), chloroquine-sensitive
  IC50: 0.017 µg/mL (≈ 0.0531 µM)
[8]
  Plasmodium falciparum (D6 clone) IC50: 0.011 µg/mL

## Oc1cccn(CCCCCn2cc(-c3ccccc3)nn2)c1=S [Compound 162d, 1-Phenyltriazolylpentyl-3-hydroxypyridine-2-thione]
[1]
  IC50: 9.33 ± 0.96 µM
[2]; SAMDI
  HDAC8 activity difference between 162d and 162e: ~7 fold
[2]; SAMDI, read-out: HDAC8 IC50
  IC50: 0.917 µM
[2]; [11]
  IC50: 0.917 ± 0.139 µM
[3]
  HDAC1 inhibition, symbol: NI (No significant Inhibition (below 20% Inhibition))
  HDAC1 % inhibition: 30%
[4]
  IC50: 5.43 ± 0.47 µM
[5]; SAMDI, read-out: HDAC6 IC50
  IC50: 0.911 µM
[5]; [12]
  IC50: 0.911 ± 0.173 µM
[6]; read-out: Jurkat (μm)
  IC50: 3.27 ± 0.6 µM

## Oc1cccn(Cc2cn(-c3ccccc3)nn2)c1=S [Compound 154a, 1-Phenyltriazolylmethyl-3-hydroxypyridine-2-thione]
[1]; [13]
  IC50: 24 ± 7.47 µM
[1]; [16]
  IC50: > 20 µM
[4]; Homo sapiens, LNCaP
  IC50: 13.1 ± 1.51 µM
[5]
  inhibition at 10 µM: 41%
[6]; [17]
  IC50: 4.68 ± 0.34 µM
